For this data set the following is noted: Liquid, Closed cell (Static) method.

± gives the expanded uncertainty stated by the source.

Here are results for 2 compounds from the NIST ThermoML archive (doi:10.1016/j.fluid.2011.07.002).

By vapor or sublimation pressure is commonly meant the equilibrium pressure above the liquid or solid. `CC12CCC(CC1)C(C)(C)O2` [1,3,3-trimethyl-2-oxabicyclo[2.2.2]octane]: the “vapor or sublimation pressure” value (278.15 K) is 0.071 ± 0.002 kPa; the “vapor or sublimation pressure” value (283.15 K) is reported as 0.093 ± 0.002 kPa; the “vapor or sublimation pressure” value (288.15 K) was 0.13 ± 0.002 kPa; the “vapor or sublimation pressure” value (293.15 K) was determined as 0.178 ± 0.003 kPa; the “vapor or sublimation pressure” value (298.15 K) is listed as 0.253 ± 0.003 kPa; the “vapor or sublimation pressure” value (303.15 K) is 0.346 ± 0.004 kPa. Besides, the “vapor or sublimation pressure” value is, setting by setting: (308.15 K) 0.477 ± 0.006 kPa; (313.15 K) 0.627 ± 0.007 kPa; (318.15 K) 0.828 ± 0.009 kPa; (323.15 K) 1.101 ± 0.011 kPa.

On to `CCO` [ethanol], for which the “vapor or sublimation pressure” value by setting is: (278.15 K) 2.264 ± 0.021 kPa; (283.15 K) 3.147 ± 0.024 kPa; (288.15 K) 4.327 ± 0.032 kPa; (293.15 K) 5.876 ± 0.04 kPa; (298.15 K) 7.798 ± 0.051 kPa; (303.15 K) 10.41 ± 0.066 kPa. The “vapor or sublimation pressure” value runs as follows: (308.15 K) 13.71 ± 0.084 kPa; (313.15 K) 17.9 ± 0.1 kPa; (318.15 K) 23.06 ± 0.13 kPa; (323.15 K) 29.46 ± 0.15 kPa.
